Assay results published in ChEMBL document CHEMBL1144863, “Novel histone deacetylase inhibitors: design, synthesis, enzyme inhibition, and binding mode study of SAHA-based non-hydroxamates” (Bioorg Med Chem Lett, 2003).

Assays:
[1] = biological target: Histone deacetylase (Homo sapiens) (UniProt Q13547+O15379+Q9UBN7+Q92769+Q9UQL6+Q8WUI4+Q9BY41+Q96DB2+P56524+Q9UKV0+Q969S8); details: at 100 µM
Description: In vitro inhibitory activity against histone deacetylase (HDAC) isolated from HeLa nuclear extract at a concentration of 100 uM

Histone deacetylase = assay: In vitro inhibitory activity against histone deacetylase (HDAC) isolated from HeLa nuclear extract; format: protein assay, Homo sapiens

O=C(CCCCCCC(=O)Nc1ccccn1)Nc1ccccc1
inhibition [1]: 8% | IC50 (Histone deacetylase): > 100 µM

NCCNC(=O)CCCCCCC(=O)Nc1ccccc1
inhibition [1]: 3% | IC50 (Histone deacetylase): > 100 µM

COC(=O)NCCCCCCC(=O)Nc1ccccc1
inhibition [1]: 12% | IC50 (Histone deacetylase): > 100 µM

Nc1ccccc1NC(=O)CCCCCCC(=O)Nc1ccccc1
inhibition [1]: 48% | IC50 (Histone deacetylase): 120 µM

O=C(CCCCCCC(=O)c1ccccn1)Nc1ccccc1
inhibition [1]: 15% | IC50 (Histone deacetylase): > 100 µM

O=C(CCCCCCC(=O)Nc1nccs1)Nc1ccccc1
inhibition [1]: 9% | IC50 (Histone deacetylase): > 100 µM

NNC(=O)NCCCCCCC(=O)Nc1ccccc1
inhibition [1]: 18% | IC50 (Histone deacetylase): 650 µM

O=C(CCCCCCNC(=O)C(Cl)(Cl)Cl)Nc1ccccc1
inhibition [1]: 4% | IC50 (Histone deacetylase): > 100 µM

NNC(=O)NCCCCC(=O)Nc1ccccc1
inhibition [1]: 12% | IC50 (Histone deacetylase): > 1000 µM

O=C(CCCCCC/C(=N/O)c1ccccn1)Nc1ccccc1
inhibition [1]: 0% | IC50 (Histone deacetylase): > 100 µM

O=C(CBr)NCCCCC(=O)Nc1ccccc1
inhibition [1]: 47% | IC50 (Histone deacetylase): 121 µM

C#CCN(CC#C)CCCCCCC(=O)Nc1ccccc1
inhibition [1]: 8% | IC50 (Histone deacetylase): > 100 µM

C#CCNCCCCCCC(=O)Nc1ccccc1
inhibition [1]: 16% | IC50 (Histone deacetylase): > 100 µM

O=C(CBr)NCCCCCCCC(=O)Nc1ccccc1
inhibition [1]: 40% | IC50 (Histone deacetylase): 300 µM

CCOC(=O)NCCCCCCC(=O)Nc1ccccc1
inhibition [1]: 19% | IC50 (Histone deacetylase): > 100 µM

O=C(CCCCCCC(=O)Nc1ccccc1)NCCO
inhibition [1]: 4% | IC50 (Histone deacetylase): > 100 µM

O=C(CCCCCCC(=O)OCCO)Nc1ccccc1
inhibition [1]: 5% | IC50 (Histone deacetylase): > 100 µM

O=C(CCCCCCNC(=O)C(F)(F)F)Nc1ccccc1
inhibition [1]: 3% | IC50 (Histone deacetylase): > 100 µM

O=C(CBr)NCCCCCCC(=O)Nc1ccccc1
inhibition [1]: 79% | IC50 (Histone deacetylase): 14 µM

NNC(=O)NCCCCCC(=O)Nc1ccccc1
inhibition [1]: 35% | IC50 (Histone deacetylase): 150 µM

NC(=O)NCCCCCCC(=O)Nc1ccccc1
inhibition [1]: 7% | IC50 (Histone deacetylase): > 100 µM

O=C(CBr)NCCCCCC(=O)Nc1ccccc1
inhibition [1]: 78% | IC50 (Histone deacetylase): 17 µM
